Results from ChEMBL document CHEMBL1155919, “Inhibition of human mitochondrial carbonic anhydrases VA and VB with para-(4-phenyltriazole-1-yl)-benzenesulfonamide derivatives” (Bioorg Med Chem Lett, 2008).
pKi: −log10 of the molar value.

Experiments:
Carbonic anhydrase 2 = Carbonic anhydrase 2 (Homo sapiens, UniProt P00918)
[1] = target: Carbonic anhydrase 5A, mitochondrial (Homo sapiens, UniProt P35218)
Carbonic anhydrase 1 = Carbonic anhydrase 1 (Homo sapiens, UniProt P00915)
[2] = target: Carbonic anhydrase 5B, mitochondrial (Homo sapiens, UniProt Q9Y2D0)
Carbonic anhydrase 5B, mitochondrial, sequence (Q9Y2D0 whole entry): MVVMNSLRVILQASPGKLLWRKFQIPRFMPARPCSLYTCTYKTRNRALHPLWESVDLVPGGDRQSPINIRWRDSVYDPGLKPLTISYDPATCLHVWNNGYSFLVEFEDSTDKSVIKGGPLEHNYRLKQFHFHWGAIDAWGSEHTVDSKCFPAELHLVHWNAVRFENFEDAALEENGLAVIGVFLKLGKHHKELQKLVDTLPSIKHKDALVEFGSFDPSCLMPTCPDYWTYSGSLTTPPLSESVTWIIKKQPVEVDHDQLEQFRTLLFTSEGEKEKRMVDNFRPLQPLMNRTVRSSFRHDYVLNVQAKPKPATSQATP

Carbonic anhydrase 1, sequence (P00915 whole entry): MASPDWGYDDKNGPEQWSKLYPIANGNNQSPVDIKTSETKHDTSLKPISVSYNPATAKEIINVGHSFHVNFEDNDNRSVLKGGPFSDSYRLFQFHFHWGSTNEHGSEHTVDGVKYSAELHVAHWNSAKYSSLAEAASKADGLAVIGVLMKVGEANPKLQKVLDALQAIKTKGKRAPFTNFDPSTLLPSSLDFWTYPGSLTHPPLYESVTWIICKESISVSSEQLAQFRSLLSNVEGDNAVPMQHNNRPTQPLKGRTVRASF
Carbonic anhydrase 5A, mitochondrial, sequence (P35218 whole entry): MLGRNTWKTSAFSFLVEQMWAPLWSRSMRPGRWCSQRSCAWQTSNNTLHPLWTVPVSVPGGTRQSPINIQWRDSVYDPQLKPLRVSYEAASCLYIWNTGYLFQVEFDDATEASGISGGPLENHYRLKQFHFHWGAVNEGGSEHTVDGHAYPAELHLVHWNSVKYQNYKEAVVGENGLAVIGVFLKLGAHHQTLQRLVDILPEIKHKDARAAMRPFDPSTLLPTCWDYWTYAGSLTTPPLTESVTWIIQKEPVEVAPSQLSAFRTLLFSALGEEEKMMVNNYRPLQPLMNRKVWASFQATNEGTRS

Compound	pKi (Carbonic anhydrase 2)	pKi [1]	pKi (Carbonic anhydrase 1)	pKi [2]
NS(=O)(=O)c1ccc(-n2cc(-c3ccc(F)cc3)nn2)cc1	7.39	7.85	5.34	7.95
Cc1ccc(-c2cn(-c3ccc(S(N)(=O)=O)cc3)nn2)cc1	–	7.89	5.68	7.97
NS(=O)(=O)c1ccc(-n2cc(-c3ccccc3)nn2)cc1	–	7.75	5.29	7.97
COc1ccc(-c2cn(-c3ccc(S(N)(=O)=O)cc3)nn2)cc1	8.08	7.97	5.66	7.29
